Reference: patent US20260183295A1, “METHODS AND COMPOSITIONS FOR TREATING CANCER” (Onconova Therapeutics, Inc., priority 2022, published 2026)

How the values were obtained:
AHCTF1 = molecular target: T1, AHCTF1 (Homo sapiens, UniProt Q8WYP5); test: CETSA-MS, MDA-MB-231 intact cells; type: cell-based; conditions: 2 μM and 20 μM
T1 construct: endogenous in cells; host or cells: MDA-MB-231
Protocol: (§1) TNBC MDA-MB-231 cells were grown at 37° C. in 5% CO2 and suspended in warm media and split into 4 equal volumes. […] Cells were incubated and then pelleted. Following pelleting, the cells were washed, resuspended, and heated in a thermal gradient. Following heating, the samples were flash frozen and lysed in lysis buffer, agitated by vortex, and sonicated prior to centrifugation. The supernatant was collected and denaturation buffer added. Cold acetone was then added to the cell samples, and protein collected by centrifugation. Pellets were then washed twice with cold acetone and the washed pellets prior to labeling.
(§2) The intact cell protein samples and lysate protein samples were then digested and labeled for mass spectrometry analysis according to the manufacturer's recommended protocols. Digested and labeled protein samples were analyzed by mass spectrometry proteomic analysis and the resulting protein targets were analyzed and plotted.

AP2M1 = molecular target: T2, AP2M1 (Homo sapiens, UniProt Q96CW1); test: CETSA-MS, MDA-MB-231 intact cells; type: cell-based; conditions: 2 μM and 20 μM
T2 construct: endogenous in cells; host or cells: MDA-MB-231
Protocol: as §1, §2

CAVIN1 = molecular target: T3, CAVIN1 (Homo sapiens, UniProt Q6NZI2); test: CETSA-MS, MDA-MB-231 intact cells; type: cell-based; conditions: 2 μM and 20 μM
T3 construct: endogenous in cells; host or cells: MDA-MB-231
Protocol: as §1, §2

DECR1 = molecular target: T4, DECR1 (Homo sapiens, UniProt Q16698); test: CETSA-MS, MDA-MB-231 intact cells; type: cell-based; conditions: 2 μM and 20 μM
T4 construct: endogenous in cells; host or cells: MDA-MB-231
Protocol: as §1, §2

DNAJC13 = molecular target: T5, DNAJC13 (Homo sapiens, UniProt O75165); test: CETSA-MS, MDA-MB-231 intact cells; type: cell-based; conditions: 2 μM and 20 μM
T5 construct: 148 targets unique to Compound 1 in MDA-MB-231 intact cells; endogenous in cells; host or cells: MDA-MB-231
T5 sequence (O75165 whole entry): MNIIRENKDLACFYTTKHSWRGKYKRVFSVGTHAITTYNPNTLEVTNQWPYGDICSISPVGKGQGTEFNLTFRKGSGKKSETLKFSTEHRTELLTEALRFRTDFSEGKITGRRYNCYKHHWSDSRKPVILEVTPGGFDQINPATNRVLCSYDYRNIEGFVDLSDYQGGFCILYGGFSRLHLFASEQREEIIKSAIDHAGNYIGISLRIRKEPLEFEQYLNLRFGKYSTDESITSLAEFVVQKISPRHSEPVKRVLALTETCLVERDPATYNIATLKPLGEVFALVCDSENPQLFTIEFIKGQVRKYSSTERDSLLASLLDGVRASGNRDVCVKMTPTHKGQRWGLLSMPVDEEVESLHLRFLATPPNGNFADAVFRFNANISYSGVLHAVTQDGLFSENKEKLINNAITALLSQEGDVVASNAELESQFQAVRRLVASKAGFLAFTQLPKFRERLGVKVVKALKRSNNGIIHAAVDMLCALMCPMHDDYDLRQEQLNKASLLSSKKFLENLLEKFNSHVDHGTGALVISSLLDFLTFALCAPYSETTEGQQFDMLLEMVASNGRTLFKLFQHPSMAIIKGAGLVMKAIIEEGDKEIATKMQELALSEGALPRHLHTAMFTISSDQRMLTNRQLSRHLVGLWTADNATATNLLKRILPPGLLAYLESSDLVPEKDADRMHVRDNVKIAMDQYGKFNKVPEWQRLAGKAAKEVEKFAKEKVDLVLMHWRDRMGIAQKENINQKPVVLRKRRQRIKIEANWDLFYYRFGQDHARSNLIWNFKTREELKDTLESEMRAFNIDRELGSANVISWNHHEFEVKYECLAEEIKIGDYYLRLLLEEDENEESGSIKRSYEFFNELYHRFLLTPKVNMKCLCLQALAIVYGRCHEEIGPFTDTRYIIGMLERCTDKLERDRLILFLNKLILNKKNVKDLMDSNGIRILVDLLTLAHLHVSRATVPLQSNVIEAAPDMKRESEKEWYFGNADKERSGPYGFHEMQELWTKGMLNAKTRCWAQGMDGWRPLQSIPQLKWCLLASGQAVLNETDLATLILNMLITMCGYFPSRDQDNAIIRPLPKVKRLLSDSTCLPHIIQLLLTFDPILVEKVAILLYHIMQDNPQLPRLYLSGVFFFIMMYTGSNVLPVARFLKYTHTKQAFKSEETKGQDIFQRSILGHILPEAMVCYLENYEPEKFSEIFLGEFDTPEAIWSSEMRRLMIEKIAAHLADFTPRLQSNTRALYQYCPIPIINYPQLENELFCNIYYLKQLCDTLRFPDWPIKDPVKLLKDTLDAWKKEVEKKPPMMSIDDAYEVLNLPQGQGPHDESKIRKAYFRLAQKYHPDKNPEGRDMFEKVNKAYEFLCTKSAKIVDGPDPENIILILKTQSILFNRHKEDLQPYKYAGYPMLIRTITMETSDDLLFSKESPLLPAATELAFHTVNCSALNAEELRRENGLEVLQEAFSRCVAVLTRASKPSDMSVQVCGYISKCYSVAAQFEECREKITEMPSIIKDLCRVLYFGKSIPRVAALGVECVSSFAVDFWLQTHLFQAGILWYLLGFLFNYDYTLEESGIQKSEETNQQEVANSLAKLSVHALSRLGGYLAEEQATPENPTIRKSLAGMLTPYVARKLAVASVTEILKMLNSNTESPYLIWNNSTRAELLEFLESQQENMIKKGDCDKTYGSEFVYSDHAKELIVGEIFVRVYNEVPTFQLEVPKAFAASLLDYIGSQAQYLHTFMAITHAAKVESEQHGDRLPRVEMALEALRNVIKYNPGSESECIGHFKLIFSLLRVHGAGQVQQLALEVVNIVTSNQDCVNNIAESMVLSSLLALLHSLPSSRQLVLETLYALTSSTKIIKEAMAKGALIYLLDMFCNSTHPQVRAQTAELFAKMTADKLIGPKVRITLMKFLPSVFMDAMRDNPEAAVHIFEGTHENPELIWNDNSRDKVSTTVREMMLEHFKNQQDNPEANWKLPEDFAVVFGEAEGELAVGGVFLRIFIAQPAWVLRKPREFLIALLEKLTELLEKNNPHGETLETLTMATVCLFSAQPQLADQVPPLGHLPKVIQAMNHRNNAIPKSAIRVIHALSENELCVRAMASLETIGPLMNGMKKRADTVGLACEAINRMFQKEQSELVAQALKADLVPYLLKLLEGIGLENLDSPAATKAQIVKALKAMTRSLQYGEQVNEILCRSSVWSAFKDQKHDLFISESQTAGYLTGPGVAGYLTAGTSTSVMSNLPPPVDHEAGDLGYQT
Protocol: as §1, §2

FBRS = test: CETSA-MS, MDA-MB-231 intact cells; type: cell-based; conditions: 2 μM and 20 μM
Protocol: as §1, §2

GCAT = molecular target: T6, GCAT (Homo sapiens, UniProt O75600); test: CETSA-MS, MDA-MB-231 intact cells; type: cell-based; conditions: 2 μM and 20 μM
T6 construct: 148 targets unique to Compound 1 in MDA-MB-231 intact cells; endogenous in cells; host or cells: MDA-MB-231
Protocol: as §1, §2

HNRNPA0 = molecular target: T7, HNRNPA0 (Homo sapiens, UniProt Q13151); test: CETSA-MS, MDA-MB-231 intact cells; type: cell-based; conditions: 2 μM and 20 μM
T7 construct: 148 targets unique to Compound 1 in MDA-MB-231 intact cells; endogenous in cells; host or cells: MDA-MB-231
Protocol: as §1, §2

HNRNPL = molecular target: T8, HNRNPL (Homo sapiens, UniProt P14866); test: CETSA-MS, MDA-MB-231 intact cells; type: cell-based; conditions: 2 μM and 20 μM
T8 construct: endogenous in cells; host or cells: MDA-MB-231
Protocol: as §1, §2

LEO1 = molecular target: T9, LEO1 (Homo sapiens, UniProt Q8WVC0); test: CETSA-MS, MDA-MB-231 intact cells; type: cell-based; conditions: 2 μM and 20 μM
T9 construct: endogenous in cells; host or cells: MDA-MB-231
Protocol: as §1, §2

MARK2 = molecular target: T10, MARK2 (Homo sapiens, UniProt Q7KZI7); test: CETSA-MS, MDA-MB-231 intact cells; type: cell-based; conditions: 2 μM and 20 μM
T10 construct: endogenous in cells; host or cells: MDA-MB-231
T10 sequence (Q7KZI7 whole entry): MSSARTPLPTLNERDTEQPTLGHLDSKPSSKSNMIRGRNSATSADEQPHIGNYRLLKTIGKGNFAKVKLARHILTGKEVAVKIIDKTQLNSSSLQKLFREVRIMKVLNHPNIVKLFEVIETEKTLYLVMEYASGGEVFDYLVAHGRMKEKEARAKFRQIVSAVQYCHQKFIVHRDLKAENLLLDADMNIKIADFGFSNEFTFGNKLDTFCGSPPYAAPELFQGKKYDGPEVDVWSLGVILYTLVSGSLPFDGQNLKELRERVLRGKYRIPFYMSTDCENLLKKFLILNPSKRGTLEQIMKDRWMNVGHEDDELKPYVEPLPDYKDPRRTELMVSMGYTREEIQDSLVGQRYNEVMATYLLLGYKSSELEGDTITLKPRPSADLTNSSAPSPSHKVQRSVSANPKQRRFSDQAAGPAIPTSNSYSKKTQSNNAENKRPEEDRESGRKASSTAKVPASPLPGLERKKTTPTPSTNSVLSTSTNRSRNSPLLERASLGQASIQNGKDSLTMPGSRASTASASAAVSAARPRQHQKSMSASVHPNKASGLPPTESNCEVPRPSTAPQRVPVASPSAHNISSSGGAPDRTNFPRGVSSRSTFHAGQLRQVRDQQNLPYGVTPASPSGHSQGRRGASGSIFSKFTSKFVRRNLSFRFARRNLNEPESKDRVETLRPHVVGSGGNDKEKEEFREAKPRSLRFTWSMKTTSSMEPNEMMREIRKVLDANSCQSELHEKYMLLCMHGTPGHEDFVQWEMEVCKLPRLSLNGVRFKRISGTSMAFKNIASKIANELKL
Protocol: as §1, §2

NAP1L1 = molecular target: T11, NAP1L1 (Homo sapiens, UniProt P55209); test: CETSA-MS, MDA-MB-231 intact cells; type: cell-based; conditions: 2 μM and 20 μM
T11 construct: endogenous in cells; host or cells: MDA-MB-231
T11 sequence (P55209 whole entry): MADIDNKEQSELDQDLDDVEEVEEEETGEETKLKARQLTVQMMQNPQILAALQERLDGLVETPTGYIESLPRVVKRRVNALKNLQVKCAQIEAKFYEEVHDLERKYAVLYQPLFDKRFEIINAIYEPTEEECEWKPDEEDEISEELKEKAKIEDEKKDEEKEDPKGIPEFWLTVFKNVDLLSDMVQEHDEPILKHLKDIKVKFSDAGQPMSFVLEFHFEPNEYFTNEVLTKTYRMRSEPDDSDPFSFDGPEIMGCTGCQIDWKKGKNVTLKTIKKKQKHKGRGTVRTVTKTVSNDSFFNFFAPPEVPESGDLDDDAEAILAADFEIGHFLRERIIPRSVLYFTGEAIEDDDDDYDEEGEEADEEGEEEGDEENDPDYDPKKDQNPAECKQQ
Protocol: as §1, §2

PIK3C3 = molecular target: T12, PIK3C3 (Homo sapiens, UniProt Q8NEB9); test: CETSA-MS, MDA-MB-231 intact cells; type: cell-based; conditions: 2 μM and 20 μM
T12 construct: endogenous in cells; host or cells: MDA-MB-231
Protocol: as §1, §2

RPS6KA3 = molecular target: T13, RPS6KA3 (Homo sapiens, UniProt P51812); test: CETSA-MS, MDA-MB-231 intact cells; type: cell-based; conditions: 2 μM and 20 μM
T13 construct: endogenous in cells; host or cells: MDA-MB-231
Protocol: as §1, §2

SHCBP1 = molecular target: T14, SHCBP1 (Homo sapiens, UniProt Q8NEM2); test: CETSA-MS, MDA-MB-231 intact cells; type: cell-based; conditions: 2 μM and 20 μM
T14 construct: endogenous in cells; host or cells: MDA-MB-231
Protocol: as §1, §2

SMAD1 = molecular target: T15, SMAD1 (Homo sapiens, UniProt Q15797); test: CETSA-MS, MDA-MB-231 intact cells; type: cell-based; conditions: 2 μM and 20 μM
T15 construct: endogenous in cells; host or cells: MDA-MB-231
Protocol: as §1, §2

SND1 = molecular target: T16, SND1 (Homo sapiens, UniProt Q7KZF4); test: CETSA-MS, MDA-MB-231 intact cells; type: cell-based; conditions: 2 μM and 20 μM
T16 construct: endogenous in cells; host or cells: MDA-MB-231
Protocol: as §1, §2

STK3 = molecular target: T17, STK3 (Homo sapiens, UniProt Q13188); test: CETSA-MS, MDA-MB-231 intact cells; type: cell-based; conditions: 2 μM and 20 μM
T17 construct: endogenous in cells; host or cells: MDA-MB-231
T17 sequence (Q13188 whole entry): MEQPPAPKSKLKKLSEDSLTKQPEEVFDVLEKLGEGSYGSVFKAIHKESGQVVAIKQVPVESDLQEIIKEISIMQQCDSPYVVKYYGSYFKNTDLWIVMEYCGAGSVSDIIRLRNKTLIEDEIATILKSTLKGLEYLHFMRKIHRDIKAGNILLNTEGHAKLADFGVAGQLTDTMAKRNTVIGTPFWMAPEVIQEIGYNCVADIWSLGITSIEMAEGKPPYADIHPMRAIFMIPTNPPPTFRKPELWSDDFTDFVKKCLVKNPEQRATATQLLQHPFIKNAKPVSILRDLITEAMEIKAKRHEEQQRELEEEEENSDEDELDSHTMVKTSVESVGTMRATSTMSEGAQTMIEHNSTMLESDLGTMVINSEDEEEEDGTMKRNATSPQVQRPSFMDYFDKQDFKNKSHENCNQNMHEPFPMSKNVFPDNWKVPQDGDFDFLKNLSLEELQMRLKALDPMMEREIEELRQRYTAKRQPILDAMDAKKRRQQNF
Protocol: as §1, §2

TLE5 = molecular target: T18, TLE5 (Homo sapiens, UniProt Q08117); test: CETSA-MS, MDA-MB-231 intact cells; type: cell-based; conditions: 2 μM and 20 μM
T18 construct: endogenous in cells; host or cells: MDA-MB-231
T18 sequence (Q08117 whole entry): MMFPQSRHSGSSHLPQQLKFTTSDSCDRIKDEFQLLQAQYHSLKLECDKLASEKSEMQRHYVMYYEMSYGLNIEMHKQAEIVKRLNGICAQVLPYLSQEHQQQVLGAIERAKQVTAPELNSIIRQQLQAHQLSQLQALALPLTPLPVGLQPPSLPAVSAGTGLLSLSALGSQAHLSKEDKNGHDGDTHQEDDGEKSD
Protocol: as §1, §2

Caspase 3 = test: Western blot, MDA-MB-231 cells, 24 hours; type: cell-based; conditions: 2.5, 5, 10 μM, versus Comparator 1, 2 and 4
MDA-MB-231 cells = test: Annexin V/PI staining followed by FACS, 24 hours; type: cell-based
Protocol: To determine the effect of the different treatment conditions on cell death, Annexin V/PI staining was performed.

B2M = test: qPCR of mRNA expression, PyMT cells; type: cell-based, mouse; conditions: 24 and 48 hours
NanoLuc-CDK16 Fusion = molecular target: T19, NanoLuc-CDK16 Fusion (Homo sapiens, UniProt Q00536); test: Cellular NanoBRET assay in HEK293 cells, raw data ratio; type: cell-based
T19 construct: expressed in transfected cells; host or cells: HEK293, transient
T19 sequence (Q00536 whole entry, the tested form may be a part): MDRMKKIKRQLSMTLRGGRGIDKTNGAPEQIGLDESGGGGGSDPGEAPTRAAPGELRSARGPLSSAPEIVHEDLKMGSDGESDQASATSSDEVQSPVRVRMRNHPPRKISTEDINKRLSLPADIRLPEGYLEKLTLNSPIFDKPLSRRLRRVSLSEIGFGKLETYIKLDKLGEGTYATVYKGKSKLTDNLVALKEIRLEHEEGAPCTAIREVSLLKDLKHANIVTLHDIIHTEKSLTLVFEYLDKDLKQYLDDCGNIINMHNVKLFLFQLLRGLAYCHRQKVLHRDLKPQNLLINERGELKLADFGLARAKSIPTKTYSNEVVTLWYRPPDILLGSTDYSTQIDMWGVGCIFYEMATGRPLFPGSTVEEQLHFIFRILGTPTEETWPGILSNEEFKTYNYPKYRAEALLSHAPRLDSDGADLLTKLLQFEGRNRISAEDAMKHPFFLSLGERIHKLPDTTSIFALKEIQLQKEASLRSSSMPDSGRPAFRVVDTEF
T19 sequence (Q8ND76 whole entry partner, the tested form may be a part): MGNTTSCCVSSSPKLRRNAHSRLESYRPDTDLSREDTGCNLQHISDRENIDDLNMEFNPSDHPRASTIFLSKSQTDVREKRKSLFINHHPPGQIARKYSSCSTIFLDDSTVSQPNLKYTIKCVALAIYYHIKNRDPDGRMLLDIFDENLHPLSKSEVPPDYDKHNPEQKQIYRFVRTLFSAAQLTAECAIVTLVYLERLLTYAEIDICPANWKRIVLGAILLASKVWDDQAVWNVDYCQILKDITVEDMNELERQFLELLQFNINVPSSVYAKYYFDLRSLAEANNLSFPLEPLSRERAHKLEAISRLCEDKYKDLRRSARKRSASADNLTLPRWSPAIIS
Protocol: HEK293 cells were transfected with 1 ug of NanoLuc-CDK16 Fusion vector and 9 ug of either carrier DNA or cyclin Y DAN. The HEK293 cells transiently expressing the vectors were then seeded into the wells of 384-well plates. The cells were pre-treated with the NanoBRET Tracer K-10 (0.5 uM) and then treated with 3-fold serial dilutions (10 uM-0.5 nM), of Compound 1 or the reference compound APY-69 for 1 hour. The BRET signal was measured on an Envision2104 Multilabel Reader. IC50 value was calculated and IC50 curve was plotted using the GraphPad Prism 4 program based on a sigmoidal dose response equation.

CN1CCN(c2ccc(Nc3ncc4cc(C#N)c(=O)n(C5CCCC5)c4n3)cc2)CC1 [Compound 1, 8-cyclopentyl-2-((4-(4-methylpiperazin-1-yl)phenyl)amino)-7-oxo-7,8-dihydropyrido[2,3-d]pyrimidine-6-carbonitrile]
Group (CETSA-MS thermal shift) (AHCTF1): Stabilization | Group (CETSA-MS thermal shift) (AP2M1): Destabilization | Group (CETSA-MS thermal shift) (CAVIN1): Stabilization | Group (CETSA-MS thermal shift) (DECR1): Destabilization | Group (CETSA-MS thermal shift) (DNAJC13): Stabilization | Group (CETSA-MS thermal shift) (FBRS): Stabilization | Group (CETSA-MS thermal shift) (GCAT): Stabilization | Group (CETSA-MS thermal shift) (HNRNPA0): Stabilization | Group (CETSA-MS thermal shift) (HNRNPL): Stabilization | Group (CETSA-MS thermal shift) (LEO1): Stabilization | Group (CETSA-MS thermal shift) (MARK2): Destabilization | Group (CETSA-MS thermal shift) (NAP1L1): Stabilization | Group (CETSA-MS thermal shift) (PIK3C3): Stabilization | Group (CETSA-MS thermal shift) (RPS6KA3): Destabilization | Group (CETSA-MS thermal shift) (SHCBP1): Destabilization | Group (CETSA-MS thermal shift) (SMAD1): Destabilization | Group (CETSA-MS thermal shift) (SND1): Stabilization | Group (CETSA-MS thermal shift) (STK3): Destabilization | Group (CETSA-MS thermal shift) (TLE5): Destabilization | Caspase 3 levels (Caspase 3): decreasing | cell death (Annexin V/PI) (MDA-MB-231 cells; Compound 1, Comparator 1, 2 5 μM, Comparator 4 10 μM): ~40% | effect of zVAD-FMK on cell death, Annexin V/PI staining (MDA-MB-231 cells; zVAD-FMK 20 μM (FIG. 24)): unaffected by zVAD-FMK treatment | B2M mRNA levels (B2M): to a greater extent than Comparator 1 did | raw data ratio 600 nm/460 nm, Data 1 (NanoLuc-CDK16 Fusion; Conc. 0.0005 μM): 0.07557 | raw data ratio 600 nm/460 nm, Data 2 (NanoLuc-CDK16 Fusion; Conc. 0.0005 μM): 0.0761 | raw data ratio 600 nm/460 nm, Data 1 (NanoLuc-CDK16 Fusion; Conc. 0.0015 μM): 0.06908 | raw data ratio 600 nm/460 nm, Data 2 (NanoLuc-CDK16 Fusion; Conc. 0.0015 μM): 0.06919 | raw data ratio 600 nm/460 nm, Data 1 (NanoLuc-CDK16 Fusion; Conc. 0.0046 μM): 0.05883 | raw data ratio 600 nm/460 nm, Data 2 (NanoLuc-CDK16 Fusion; Conc. 0.0046 μM): 0.05984 | raw data ratio 600 nm/460 nm, Data 1 (NanoLuc-CDK16 Fusion; Conc. 0.0137 μM): 0.04626 | raw data ratio 600 nm/460 nm, Data 2 (NanoLuc-CDK16 Fusion; Conc. 0.0137 μM): 0.04683 | raw data ratio 600 nm/460 nm, Data 1 (NanoLuc-CDK16 Fusion; Conc. 0.0412 μM): 0.04036 | raw data ratio 600 nm/460 nm, Data 2 (NanoLuc-CDK16 Fusion; Conc. 0.0412 μM): 0.04048 | raw data ratio 600 nm/460 nm, Data 1 (NanoLuc-CDK16 Fusion; Conc. 0.1235 μM): 0.02963 | raw data ratio 600 nm/460 nm, Data 2 (NanoLuc-CDK16 Fusion; Conc. 0.1235 μM): 0.03005 | raw data ratio 600 nm/460 nm, Data 1 (NanoLuc-CDK16 Fusion; Conc. 0.3704 μM): 0.02837 | raw data ratio 600 nm/460 nm, Data 2 (NanoLuc-CDK16 Fusion; Conc. 0.3704 μM): 0.02942 | raw data ratio 600 nm/460 nm, Data 1 (NanoLuc-CDK16 Fusion; Conc. 1.1111 μM): 0.02836 | raw data ratio 600 nm/460 nm, Data 2 (NanoLuc-CDK16 Fusion; Conc. 1.1111 μM): 0.02899 | raw data ratio 600 nm/460 nm, Data 1 (NanoLuc-CDK16 Fusion; Conc. 3.3333 μM): 0.02996 | raw data ratio 600 nm/460 nm, Data 2 (NanoLuc-CDK16 Fusion; Conc. 3.3333 μM): 0.02908 | raw data ratio 600 nm/460 nm, Data 1 (NanoLuc-CDK16 Fusion; Conc. 10.0000 μM): 0.02733 | raw data ratio 600 nm/460 nm, Data 2 (NanoLuc-CDK16 Fusion; Conc. 10.0000 μM): 0.02831
